For one data set, the target named is S. aureus (Sa) DHFR (Staphylococcus aureus, UniProt P0A017). The data set is classed as biochemical. As to conditions: Table 2.
The test system of data set [1] is Sa(H30N) strain.
Another data set concerns Mtb C-31. Format: cell-based, Mycobacterium tuberculosis. The note with it: MDR strain.
Data set [2] in a line: Microsomal stability assay (UPLC of parent compound).
The test system of a further data set is Mtb. The data set is described as follows: M. tuberculosis MIC, microtiter broth dilution (Table 6). The data set is classed as cell-based, Mycobacterium tuberculosis. The method, then: (§1) (provided by Leonid Heifets).
(§2) Each isolate was tested in duplicate.
On the technique in general: Dilution methods test growth across graded concentrations, often in twofold steps.

The next data set relates to Mtb 276. Format: cell-based, Mycobacterium tuberculosis. The note with it: MDR strain.
Data set [3] has as its system S. aureus ATCC strain 43300. Briefly: microbe, parasite or virus in culture. Format: cell-based, Staphylococcus aureus. The note with it: for MIC Sa43300: Table 12, wild-type strain.
A further data set concerns Mtb 365. The data set is classed as cell-based, Mycobacterium tuberculosis. As to conditions: MDR strain.
For another data set, the system named is E. coli NR698. Format: cell-based, Escherichia coli. The note with it: Table 2.
The next data set relates to Mtb 352. Format: cell-based, Mycobacterium tuberculosis. The note with it: MDR strain.
Data set [4] has as its target T1, MtbDHFR (Mycobacterium tuberculosis (strain ATCC 25618 / H37Rv), UniProt P9WNX1). The data set is described as follows: M. tuberculosis DHFR enzyme inhibition. Format: biochemical.
A further data set has as its system Mtb 5. Format: cell-based, Mycobacterium tuberculosis. The note with it: XDR strain.
A further data set has as its target CYP3A4 (Homo sapiens (Human), UniProt P08684). Briefly: Cytochrome P450 inhibition, CYP3A4.
The next data set has as its system E. coli (ATCC 25922). The data set is described as follows: E. coli MIC, microdilution broth assay. The note with it: Table 2; wild-type E. coli. The data set is classed as cell-based, Escherichia coli. The method, then:
Minimum inhibitory concentrations were determined using E. coli (ATCC 25922) and the microdilution broth assay with an inoculum of […] CFU/mL in Isosensitest Broth (Oxoid).

A further data set relates to Mtb 56. Format: cell-based, Mycobacterium tuberculosis. As to conditions: MDR strain.
Another data set deals with E. coli (Ec) DHFR (Escherichia coli (strain K12), UniProt P0ABQ4). Briefly: E. coli DHFR enzyme inhibition (NADPH oxidation, 340 nm). The data set is classed as biochemical. The note with it: Table 2.
The next data set concerns the target CYP2D6 (Homo sapiens (Human), UniProt P10635). Briefly: Cytochrome P450 inhibition, CYP2D6.
Another data set relates to Mtb Erdman. The data set is described as follows: Mtb Erdman MIC, microtiter broth dilution. Format: cell-based, Mycobacterium tuberculosis. The method, then:
as §1, §2

In a further data set the target is human (Hu) DHFR (Homo sapiens (Human), UniProt P00374). Briefly: Human DHFR enzyme inhibition (Example 5). The note with it: Table 2. The data set is classed as biochemical.
Data set [5] relates to Sa(H30N) strain. Briefly: microbe, parasite or virus in culture. As to conditions: Staphylococcus aureus, read-out: MIC Sa(H30N).
Data set [6] concerns Sa43300. Format: cell-based, Staphylococcus aureus. As to conditions: progenitor Sa43300, 6× MIC.
Data set [7] has as its system Sa43300. The note with it: previously reported studies, S. aureus 43300; cited from earlier work.
In data set [8] the target is T1, MtbDHFR. As to conditions: data from Nixon et al., Chem. Biol. (2014); cited from earlier work.
Data set [9] relates to methicillin-resistant S. aureus (MRSA). The note with it: background; cited from earlier work.
Data set [10] deals with E. coli, efflux pumps genetically deleted. The note with it: background; cited from earlier work.
The subject of data set [11] is wild-type Gram-negative E. coli. The note with it: background; cited from earlier work.

≈ marks a conversion by molar mass, not a printed value. Where two headings read alike, the source gives them in different places.

A word on the IC50: it is the concentration needed to halve the response being measured. In the case of `CCc1nc(N)nc(N)c1C#CCc1cc(-c2ccc(C(=O)O)cc2)ccc1OC` [Compound 15], the values for the 50% inhibitory concentration (IC50) on S. aureus (Sa) DHFR, on MtbDHFR [4] and on E. coli (Ec) DHFR were 32 nM, 173 nM and 90 nM, respectively. The “MIC Sa(H30N)” value against Sa(H30N) strain [1] amounted to 0.1563 µg/mL (≈ 0.388 µM). The “MIC Mtb C-31” value in the data set on Mtb C-31 is >32 µg/mL. For the same compound, the “phase I half-life” value in data set [2] (phase I) was 99 min. In data set [2] (phase II), the “phase II half-life” value is given as “approximately 87 min”. In addition, in the data set with Mtb, the “MIC Mtb” value came out at 4 µg/mL (≈ 9.94 µM). For the same compound, the “MIC Mtb 276” value in the data set with Mtb 276 turned out to be 16 µg/mL (≈ 39.8 µM). Moreover, the “MIC S. aureus 43300” value in data set [3] is 0.0195 µg/mL (≈ 0.0485 µM). For the same compound, in [3], the “MIC Sa43300” value came out at 0.0195 µg/mL (≈ 0.0485 µM). The “MIC Mtb 365” value against Mtb 365 turned out to be 4 µg/mL (≈ 9.94 µM). Moreover, in the data set on E. coli NR698, the “MIC E. coli NR698” value is 0.0098 µg/mL (≈ 0.0244 µM). Further, in the data set with Mtb 352, the “MIC Mtb 352” value was 16 µg/mL (≈ 39.8 µM). Also, in the data set on Mtb 5, the “MIC Mtb 5” value was 8 µg/mL (≈ 19.9 µM). Moreover, the “concentration required for inhibition of CYP3A4” value at CYP3A4 is listed as “greater than 50 μM”. Also, the “MIC E. coli 25922” value in the data set with E. coli (ATCC 25922) is >20 µg/mL. In addition, the “MIC Mtb56” value with Mtb 56 turned out to be 16 µg/mL (≈ 39.8 µM). Further, at CYP2D6, the “concentration required for inhibition of CYP2D6” value is on record as “greater than 50 μM”. The “MIC Mtb Erdman” value in the data set with Mtb Erdman stood at 16 µg/mL (≈ 39.8 µM).

Turning to `CCc1nc(N)nc(N)c1C#CC(SC)c1cc(-c2ccc(C(=O)O)cc2)ccc1OC` (centres unmarked) [Compound 29], the figures for the IC50 on S. aureus (Sa) DHFR, at human (Hu) DHFR and on E. coli (Ec) DHFR were 37 nM, 266 nM and 177 nM, respectively. The “MIC Sa(H30N)” value with Sa(H30N) strain [1] is 0.1563 µg/mL (≈ 0.348 µM). Besides, the “MIC Mtb” value in the data set with Mtb was determined as 0.5 µg/mL (≈ 1.11 µM). Besides, the “MIC S. aureus 43300” value in data set [3] worked out at 0.625 µg/mL (≈ 1.39 µM). Besides, the “MIC Sa43300” value in [3] was 0.0391 µg/mL (≈ 0.0872 µM). Further, in the data set with E. coli NR698, the “MIC E. coli NR698” value came to 0.0391 µg/mL (≈ 0.0872 µM). Further, in the data set on E. coli (ATCC 25922), the “MIC E. coli 25922” value is >20 µg/mL.

With `CCc1nc(N)nc(N)c1C#CC(C)c1cc(OC)cc(-c2ccncc2)c1` (centres unmarked) [Compound A], in [3] (Staphylococcus aureus, ATCC43300, read-out: MIC Sa43300), the MIC came to 0.0781 µg/mL (≈ 0.209 µM). In addition, the MIC in the data set with Sa(H30N) strain [5] worked out at 2.5 µg/mL (≈ 6.69 µM). Further, in the data set on Sa43300 [6], the “Mutational Frequency of DHFR mutation F98Y” value is given as 3.11 × 10^−11, the “Mutational Frequency of DHFR mutation H30N” value is listed as 4.67 × 10^−11 and the “Mutational Frequency of DHFR mutation H149R” value is recorded as 1.65 × 10^−10. In addition, the “mutation frequencies of mutants F98Y and F98I” value with Sa43300 [7] was 10^−10.

In turn, `COc1cc(NCc2ccc3nc(N)nc(N)c3c2C)cc(OC)c1OC` [Trimetrexate, trimetrexate, reference compound] showed an MIC with Mtb (Mycobacterium tuberculosis) of 4 µg/mL (≈ 10.8 µM). Also, at MtbDHFR [8], the IC50 is 17 nM.

`CN(Cc1cnc2nc(N)nc(N)c2n1)c1ccc(C(=O)N[C@@H](CCC(=O)O)C(=O)O)cc1` [methotrexate]: in data set [9], the “MIC50 MRSA” value is 20 µg/mL (≈ 44 µM) and the “MIC90 MRSA” value is 100 µg/mL (≈ 220 µM). In addition, the “MIC E. coli, efflux pumps genetically deleted” value in data set [10] was 64 to 256 µM. Further, the “MIC wild-type E. coli” value in [11] was “over 1 mM”.

The record behind these values is patent US10870625B2, “Zwitterionic propargyl-linked antifolates useful for treating bacterial infections” (THE UNIVERSITY OF CONNECTICUT, priority 2016, dated 2020).
